# Values quoted from earlier work in patent US9107837B2, “Sustained release formulation of naltrexone” (Orexigen Therapeutics, Inc., priority 2006, dated 2015).
# Conditions: open label, approximately 570 individuals with alcoholism
smiles,measurement,value
"O=C1CC[C@@]2(O)[C@H]3Cc4ccc(O)c5c4[C@@]2(CCN3CC2CC2)[C@H]1O5 [naltrexone, 17-(cyclopropylmethyl)-4,5α-epoxy-3,14-dihydroxymorphinan-6-one]",New-onset adverse reaction: anxiety,2%
same,New-onset adverse reaction: dizziness,4%
same,New-onset adverse reaction: fatigue,4%
same,New-onset adverse reaction: headache,7%
same,New-onset adverse reaction: insomnia,3%
same,New-onset adverse reaction: nausea,10%
same,New-onset adverse reaction: nervousness,4%
same,New-onset adverse reaction: somnolence,2%
same,New-onset adverse reaction: vomiting,3%
